{"source": "paper PMC8043168", "about": "“Tribolium castaneum defensin 1 kills Moraxella catarrhalisin an in vitro infection model but does not harm commensal bacteria” (Virulence, 2021)", "key": {"E. coli": {"system": "E. coli", "assay": "Growth kinetics of commensal E. coli", "format": "cell-based, Escherichia coli", "conditions": "liquid LB medium, 37°C, OD600 every 30 min; defensin 1 12.5 µM, sarcotoxin 1 C 0.39 µM", "method": "For the analysis of commensal bacteria, E. faecalis was grown on Columbia agar plates or in liquid BHI medium, and E. coli was grown on McConkey agar or in liquid LB medium. After overnight culture on agar plates at 37°C and 5% CO2, both species were transferred to liquid medium at an initial OD600 of 0.005. The cultures were maintained in a shaking incubator at 37°C, and the OD600 was measured automatically at 30-min intervals as above."}, "M. catarrhalis [1]": {"system": "M. catarrhalis", "assay": "AMP inhibitory testing without macrophages, dilution and plating (Figure S1)", "format": "cell-based, Moraxella catarrhalis", "method": "(§1) Colonies of M. catarrhalis were grown on sheep blood agar plates for 12 h at 37°C and 5% CO2 before transfer to brain heart infusion (BHI) medium (Carl Roth, Karlsruhe, Germany) at an initial concentration of 1.6 × 10^7 cells/ml (OD600 = 0.08) as determined using an Ultraspec 10 cell densitometer (Amersham BioSciences, Little Chalfont, UK). Bacteria were cultivated in a shaking incubator at 37°C until the concentration reached 1.2 × 10^8 cells/ml (OD600 = 0.6) and then diluted to 2 × 10^6 cells/ml (OD600 = 0.011). To establish the optimal concentration ranges for AMP activity, defensin 1 was prepared as a two-fold dilution series from 12.5 µM to 1.56 µM and was added to the bacterial cultures, which were incubated as above for a further 16 h. Untreated cultures were used as controls. The OD600 was measured automatically at 30-min intervals using an Infinite M200 Pro plate reader (Tecan Life Sciences, Männedorf, Switzerland). […] They were cultivated for a further 15 h at 37°C and 5% CO2 in serial dilution before manual counting of the colonies on each plate."}, "[2]": {"conditions": "up to a concentration of 100 µM; cited from earlier work"}, "Streptococcus pneumoniae": {"system": "Streptococcus pneumoniae", "conditions": "cited from earlier work", "source_text": "Among the 23 AMPs we tested, only defensin 1 was previously found to be effective against the Gram-positive pathogen Streptococcus pneumoniae. It is unclear whether the eﬃcacy of defensin 1 indeed lies in the structure of the peptide and whether other AMPs with different structures would also show activity against M. catarrhalis. We therefore also investigated L. sericata sarcotoxin 1 C, which has a linear α-helical structure without disulfide bridges."}, "M. catarrhalis [3]": {"system": "M. catarrhalis", "format": "cell-based, Moraxella catarrhalis", "method": "as §1\nTable S1. Detailed characterization of tested AMPs. M.c. were grown to an Optical Density (OD) 600nm of 0.6 in Brain Heart Infusion (BHI) Medium.\nUpon dilution to OD600nm= 0.01, M.c. were incubated with declining amounts of indicated AMPs (25 μM to 0.048 μM at halving intervals) at 37°C with 5% CO2.\nOD600nm was measured at 30 min intervals to establish the minimal inhibitory concentration (MIC). pI = isoelectric point, MW = molecular weight in kiloDalton.\nMIC AMP name AMP class Organism Amino Acid Sequence pIMWPurity Retention time [min] modification\n0.195 µM Cecropin A α-helical Hyalophora cecropia […] 10.75 4.00 91.06 7.30 n-term. amidation\n0.39 µM Sarcotoxin IA α-helical Sarcophaga peregrina […] 11.07 4.16 91.37 9.37 n-term. amidation\n~ 25µM Stomoxyn α-helical Stomoxys calcitrans […] 11.26 4.40 95.34 10.08 n-term. amidation\n~ 25µM Spinigerin linear Pseudacanthotermes spiniger […] 11.07 3.00 96.23 12.45 none\n>25µM Apidaecin Ia proline-rich Apis mellifera GNNRPVYIPQPRPPHPRI 11.71 2.11 92.98 16.91 none\n>25µM Drosocin proline-rich Drosophila melanogaster GKPRPYSPRPTSHPRPIRV 12.01 2.20 92.86 11.65 none\n>25µM Pyrrhocoricin proline-rich Pyrrhocoris apterus […] 10.27 2.34 93.17 11.38 none\n>25 µM Metalnikowin-1 proline-rich Palomena prasina […] 9.98 1.84 92.85 13.36 none\n>25 µM Metalnikowin-2A proline-rich Palomena prasina […] 9.98 1.84 92.39 10.85 none\n>25 µM Metchnikowin-1 proline-rich Drosophila melanogaster […] 10.74 3.03 99.06 11.50 none\n>25 µM Metchnikowin-2 proline-rich Drolophila melanogaster […] 11.54 3.04 97.16 11.46 none\n12.5 µM Defensin 1 disulfide stabilized Tribolium castaneum […] 9.7 4.83 90.53 18.41 none\n~ 25 µM Cecropin-like α-helical Lucilia sericata[…] 10.35 6.66 90.28 12.01 none\n0.195 µM Cecropin α-helical Galleria mellonella […] 10.21 4.21 93.61 12.33 n-term. amidation\n0.37 µM Cecropin α-helical Lucilia sericata […] 10.56 4.26 94.31 10.83 n-term. amidation\n12.5 µM Stomoxyn α-helical Lucilia sericata […] 10.73 4.38 90.37 13.35n-term. amidation n-term.\n1.56 µM Cecropin(Sarcotoxin) α-helical Eristalis tenax […] 10.56 4.14 90.80 9.76 none"}, "macrophages": {"system": "macrophages", "conditions": "cited from earlier work", "source_text": "Defensin 1 limited the expressio ..."}, "BDMs activated by LPS": {"system": "BDMs activated by LPS", "assay": "Sterile activation of BDMs by LPS", "format": "cell-based, human", "conditions": "defensin 1 added 1 h after LPS", "method": "(§2) The presence of cytokines in the BDM supernatant after infection and treatment with 12.5 µM defensin 1 was assessed using the MAGPIX Multiplex ELISA (Luminex, Austin, TX, USA). BDM supernatants were prepared as recommended for the MAGPIX system. The cytokine panel comprised MIP1-α, MCP1, IL-1β, IL-6, IL-8, IL-10, IL-12p70, IL-23, LAP and TNF-α.\n(§3) Statistical interpretation of the multiplex ELISA data required the incorporation of data points outside the detection range and adjustments for the effect of parallel technical measurements from the same biological samples. We therefore used the Hodges and Lehmann nonparametric aligned ranks test to compare cytokine secretion by treatment time within treatment groups and between the following control and treatment groups: […]"}, "[4]": {"system": "BDMs infected with M. catarrhalis", "assay": "Multiplex ELISA of cytokines in BDM supernatant after infection", "format": "cell-based, human", "conditions": "defensin 1 12.5 µM, 1 or 5 h post-infection, MOI 0.5 or 1", "method": "as §2, §3"}}, "note": "Bridge positions count the residues as written; N and C are the ends."}
{"substance": "H-VTCDLLSAEAKGVKVNHAACAAHCLLKRKRGGYCNKRRICVCRN-OH (disulfide 3-34, 20-40, 24-42 (inferred)) [Defensin 1]", "values": [{"measurement": "effect on growth of E. coli", "setting": "E. coli", "result": "minor growth delay"}, {"measurement": "effect on bacterial growth upon dilution of the AMP by plating", "setting": "M. catarrhalis [1]; defensin 1 12.5 µM or sarcotoxin 1 C 0.39 µM in BHI, diluted in PBS with 0.15% gelatin, plated on sheep blood agar, 15 h, Figure S1", "result": "efficiently killed the bacteria"}, {"measurement": "bactericidal or bacteriostatic capacity", "setting": "M. catarrhalis [1]; growth of M. catarrhalis after dilution of the AMP", "result": "bactericidal"}, {"measurement": "hemolytic activity", "setting": "[2]", "result": "minimal hemolytic activity"}, {"measurement": "effective against Streptococcus pneumoniae", "setting": "Streptococcus pneumoniae", "result": "effective"}, {"measurement": "MIC (minimal inhibitory concentration)", "setting": "M. catarrhalis [3]; 12 h", "result": 12.5, "unit": "µM"}, {"measurement": "concentration that completely abolished/inhibited the growth of M. catarrhalis", "setting": "M. catarrhalis [3]; growth curve in BHI, two-fold dilution series, 37°C, 16 h, OD600 every 30 min", "result": 12.5, "unit": "µM"}, {"measurement": "toxicity toward macrophages", "setting": "macrophages", "result": "nontoxic"}, {"measurement": "sterile activation of BDMs by LPS in presence of peptide", "setting": "BDMs activated by LPS", "result": "not significantly affected"}, {"measurement": "bacteria-induced secretion of IL-1β", "setting": "[4]", "result": "inhibited"}, {"measurement": "bacteria-induced secretion of IL-10", "setting": "[4]", "result": "inhibited"}, {"measurement": "bacteria-induced secretion of IL-12p70", "setting": "[4]", "result": "inhibited"}, {"measurement": "bacteria-induced secretion of IL-23", "setting": "[4]", "result": "inhibited"}]}
